Data: patent EP0374249A1, “METHOD OF STERILIZING PLANT POLLEN” (VSESOJUZNY NAUCHNO-ISSLEDOVATELSKY INST. SELSKOKHOZYAISTV. …, priority 1988, dated 1989)

Key:
Linie BK-119 = assay: Field test of pollen sterilisation, sunflower line BK-119; assay type: in vivo, Sonnenblume; details: period V, 0.5% emulsion; for Prozentsatz der Sterilität: 3 kg/ha (N-Karbamoylmaleaminsäure) or 0.1% emulsion, 1 kg/ha (N-(3-Dimethylaminopropyl)-maleaminsäure); for Ansetzen von Ächänen bei freier Bestäubung in %: 3 kg/ha or 0.1% emulsion, 1 kg/ha, free pollination
Excerpt: (§1) Die gametozide Aktivität der erfindungsgemässen Sterilisationsmittel war im Feldversuch in verschiedenen Bodenklimatischen Zonen mit Teilstücken von 10 m^2 Grösse in drei- bis viermaliger Wiederholung nachgewiesen. Jedes Sterilisationsmittel wurde mindestens 5 Jahre lang geprüft.
(§2) Die Entwicklung der Perioden der Organogenese wird zytologischüberwacht. Die Behandlung von Pflanzen mit dem Sterilisationsmittel erfolgt am Anfang der fünften Periode der Organogenese nach Kupermann.
(§3) Zur Kontrolle der chemischen Sterilisation des Sonnenblumenpollens werden für jede Verbindung 45 behandelte Pflanzen jeder Wiederholung benutzt, wobei 15 Pflanzen von denen zwecks Selbstbestäurun^g des Blütenkörbchens isoliert werden, 15 andere Pflanzen mit einem Pollengemisch, gesammelt von 20 bis 25 behandelten isolierten Körbchen, bestäubt werden und 15 Pflanzen für freie Bestäubeung gelassen werden, damit das Ansetzen von Ächänen mit dem Pollen der Vaterform kontrolliert werden kann.
(§4) Man beurteilt die Pollensterilität von Pflanzen der Sonnenblume nach der Pollenfertilität und -keimfähigkeit, nach den morphologischen Besonderheiten von Spermien und nach der Fähigkeit von Achänen zum Ansetzen bei der Bestäubung der behandelten isolierten Pflanzen mit dem Pollen der unbehandelten väterlichen Form. Die Lebensfähigkeit der Eizelle wird nach der Samenbildung von behandelten Pflanzen bei freier Bestäubung der väterlichen Form ermittelt.
(§5) Pflanzen der Sonneblume Sorte Peredovik und Linie BK-119 werden in der V. Periode der Organogenese (nach Kupermann) mit einer 0,5%igen wässrigen Emulsion der N-Karbamoylmaleaminsäure behandelt. Die Emulsion enthält 0,01 Masse% Dimethylsulfoxid und 0,1 Masse% Kalziumalkylbenzolsulfonat mit 12 bis 14 Kohlenstoffatomen. Der Verbrauch an Präparat beträgt 3 kg/ha. Die gleichen Pflanzen werden mit einer 0,1masseprozentigen wässrigen Emulsion der N-(3-Dimethylaminopropyl)-maleaminsäure behandelt. Im letzten Falle enthält die Emulsion 0,01 Masse% Dodezylsulfat und 0,1 Masse% Kalziumalkylbenolsulfonat mit 12 bis 14 Kohlensotffatomen. Der Verbrauch an Präparat beträgt 1 kg/ha. Als Kontrolle dienen Pflanzen, behandelt mit einem Verdünner.ohne Sterilisationsmittel. Die Prufergenisse sind in der Tabelle 14 dargestellt. […] Periode der Organogenese erhalten.

[1] = system: Sonneblume Sorte Peredovik; assay: Field test of pollen sterilisation, sunflower variety Peredovik; assay type: in vivo, Sonnenblume; details: period V, 0.5% emulsion; for Prozentsatz der Sterilität: 3 kg/ha (N-Karbamoylmaleaminsäure) or 0.1% emulsion, 1 kg/ha (N-(3-Dimethylaminopropyl)-maleaminsäure); for Ansetzen von Ächänen bei freier Bestäubung in %: 3 kg/ha or 0.1% emulsion, 1 kg/ha, free pollination
Excerpt: as §1, §2, §3, §4, §5

[2] = Toxicity test in animals (LD50); details: in vivo; animal test, per kg animal weight; species and route not given
Excerpt: Alle erfindungsgemässen N-substituierten Maleaminsäuren, welche als Sterilisationsmittel zur Verwendung kommen, waren auf die Toxizität im Tierversuch geprüft. Die Prüfergebnisse haben ergeben, dass die angegebenen Verbindungen von schwacher oder mittlerer Toxizität sind.

[3] = system: Winterweizens Sorte Bezostaya 1; assay: Field test of pollen sterilisation, winter wheat Bezostaya 1; assay type: in vivo, Winterweizen; details: 2% aqueous emulsion, 16 kg/ha
Excerpt: Pflanzen des Winterweizens Sorte Bezostaya 1 werden in der V. Periode der Organogenese durch Zerstäubung einer 2%igen wässrigen Emulsion von N-(2-Dimethylaminoäthyl)-maleaminsäure, N-(3-Dimethylaminopropyl)-maleaminsäure, N-Äthylmaleaminsäure, N-(2-Hydroxyäthyl)-maleaminsäure, N-Karbamoylmaleaminsäure mit Hilfe deiner Rückspritze behandelt. Die Emulsion enthält 0,1 Masse% Kalziumalkylbenzolsulfonat mit 12 bis 14 Kohlenstoffatomen. Als Adjuvans führt man in die Emulsion 0,01 Masse% Tetrahydrofuran ein.
Der Verbrauch an Präparat beträgt 16 kg/ha. Als Kontrolle dienen Pflanzen, behandelt mit einem Verdünner ohne Sterilisationsmitteln.

[4] = system: tetraploidem Roggen Sorte Ukrainskaya tetra; assay: Field test of pollen sterilisation, tetraploid rye Ukrainskaya tetra; assay type: in vivo; details: 1% aqueous emulsion, 6 kg/ha
Excerpt: (§6) Jedes Sterilisationsmittel wurde mindestens 5 Jahre lang geprüft.
as §2
(§7) Mit dem Ahrenschiebe verwirklicht man die Isolierung von Hauptähren und anderen Stockwerken in Pergamentbeuteln. Bei Weizen und Tritikale werden Einzelisolatoren verwendet. Bei Roggen schliesst man je Ähre 5 bis 7 verschiedene nebeneinander befindliche Pflanzen unter einen gemeinsamen Isolator ein. Bei Hirse wird jede Rispe getrennt isoliert. Der Sterilitätsprozentsatz (X) für Weizen, Roggen, Tritikale und Hirse wird nach folgender Formel [formula] ermittelt.
(§8) Die Kornzahl in nicht isolierten ähren von Kontrollpflanzen wird bedingt für 100% Ansetzen bei freier Bestäubung angenommen.
(§9) Um zuverlässige Angaben zu erhalten, verwendet man 20 bis 25 Isolatoren jeder Wiederholung für Weisen und Tritikale, 10 bis 15 Gruppenisolatoren jeder Wiederholung für Roggen und Hirse.
Pflanzen von tetraploidem Roggen Sorte Ukrainskaya tetra werden in der V. Periode der Organogenese (nach Kupermann) mit einer 1%igen wässrigen Emulsion von N-(2-Dimethylaminoäthyl)maleaminsäure, N-(3-Dimethyl-aminopropu)maleaminsäure bzw. N-Karbamoylmaleaminsäure behandelt. Die Emulsion enthält 0,1 Masse% Kaliumalkylbenzolsulfonat mit 12 bis 14 Kohlenstoffatomen und 0,01 Masse% Dodezylsulfat. Der Verbrauch an Präparat beträgt 6 kg/ha. Als Kontrolle dienen Pflanzen, behandelt mit einem Verdünner ohne Sterilisationsmittel. Die Prüfergebnisse sind in der Tabelle 6 dargestellt.

[5] = system: Winterweizens Sorte Mir.onovskaya 808; assay: Field test of pollen sterilisation (gametocidal activity), winter wheat Mironovskaya 808; assay type: in vivo, Winterweizen; details: 2% aqueous emulsion, 20 kg/ha
Excerpt: Als Emulgierungsmittel wird 0,1 Masse% Kalziumalkylbenzolsulfonat mit 12 bis 14 Kohlenstoffatomen hinzugefügt. Als Adjuvans fährt man in die Emulsion 0,01 Masse% Dimethylsulfoxid ein. Der Verbrauch an Präparat beträgt 20 kg/ha. Als Kontrolle dienen Pflanzen, behandelt mit einem Verdünner ohne Sterilisationsmittel.

[6] = system: Sommerweizens Sorte Botanicheskaya 4; assay: Field test of pollen sterilisation, spring wheat Botanicheskaya 4; assay type: in vivo, Sommerweizen; details: 1% aqueous emulsion, 6 kg/ha
Excerpt: Pflanzen des Sommerweizens Sorte Botanicheskaya 4 werden in der V. Periode der Organogenese (nach Kupermann) mit einer 1%igen Wässrigen Emulsion von N-(2-Dimethyl-aminoäthyl)-maleaminsäure, N-(3-Dimethylaminopropyl)-maleaminsäure, N-Äthylmaleaminsäure, N-(2-Hydroxyäthyl)-maleaminsäure bzw. N-Karbamoylmaleaminsäure behandelt. Die Emulsion enthält 0,5 Masse% Kalziumalkylbenzolsulfonat mit 12 bis 14 Kohlenstoffatomen und 0,01 Masse% Dimethylsulfoxid als Adjuvans. Der Verbrauch an Präparat beträgt 6 kg/ha. Als Kontrolle dienen Pflanzen, behandelt mit einem Verdünner ohne Sterilisationsmittel.

Tritikale Sorte Prag 109 = assay: Field test of pollen sterilisation, triticale Prag 109; assay type: in vivo; details: 2% aqueous emulsion, 12 kg/ha
Excerpt: as §6, §2, §7, §8, §9
V.Periode der Organogenese (nach Kupermann) mit einer 2%igen wässrigen Emulsion von N-(3-Dimethylaminopropyl) maleaminsäure, N-Karbamoylmaleaminsäure behandelt. Die Emulsion enthält 0,01 Masse% Tetrahydrofuran […] und 0,1 Masse% Kalziumalkylbenzolsulfonat mit 12 bis 14 Kohlensotffatomen. Der Verbrauch an Präparat beträgt 12 kg/ha. Als Kontrolle dienen Pflanzen, behandelt mit einem Verdünner ohne Sterilisationsmittel.

[7] = system: Hirse Sorte Mironovskoe 94; assay: Field test of pollen sterilisation, millet Mironovskoe 94; assay type: in vivo; details: 1% aqueous emulsion, 8 kg/ha
Excerpt: as §1, §2, §7, §8, §9
Pflanzen der Hirse Sorte Mironovskoe 94 werden in der V. Periode der Organogenese (nach Kupermann) mit einer 1%igen wässrigen Emulsion von N-(2-Dimethylaminoäthyl)maleaminsäure, N-(3-Dimethylaminopropyl)maleaminsäure, N-Äthylmaleaminsäure, N-(2-Hydroxyäthyl)maleaminsäure, N-Karbamoylmaleaminsäure behandelt. Die Emulsion enthält 0,01 Masse% Dimethylaulfoxid und 0,1 Masse% Kalziumalkylbenzolsulfonat mit 12 bis 14 Kohlenstoffatomen. Der Verbrauch an Präparat beträgt 8 kg/ha. Als Kontrolle dienen Pflanzen, behandelt mit einem Verdünner ohne Sterilisationsmittel. Die Prüfergebnisse sind in der Tabelle 12 dargestellt. […] Periode der Organogenese erhalten.

[8] = system: Sommerweizens Sorte Moskovskaya 35; assay: Field test of pollen sterilisation, spring wheat Moskovskaya 35; assay type: in vivo, Sommerweizen; details: 1% aqueous emulsion, 10 kg/ha
Excerpt: Pflanzen des Sommerweizens Sorte Moskovskaya 35 werden in V. Periode der Organogenese (nach Kupermann) mit einer 1%igen wässrigen Emulsion von N-(2-Dimethyl-aminoäthyl)-maleaminsäure, N-(3-Dimethylaminopropyl)-maleaminsäure, N-Äthylmaleaminsäure, N-(2-Hydroxyäthyl) maleaminsäure bzw. N-Karbamoylmaleaminsäure behandelt. Die Emulsion enthält 0,5 Masse% Kalziumalkylbenzolsulfonat mit 12 bis 14 Kohlenstoffatomen als Emulgierungsmittel und 0,01 Masse% Dimethylformamid als Adjuvans. Der Verbrauch an Präparat beträgt 10 kg/ha. Als Kontrolle dienen Pflanzen, behandelt mit einem Verdünner ohne Sterilisationsmittel.

[9] = system: diploidem Roggen Sorte Talovskaya 12; assay: Field test of pollen sterilisation, diploid rye Talovskaya 12; assay type: in vivo; details: 1% aqueous emulsion, 6 kg/ha
Excerpt: (§10) Mit dem Ahrenschiebe verwirklicht man die Isolierung von Hauptähren und anderen Stockwerken in Pergamentbeuteln. […] Bei Roggen schliesst man je Ähre 5 bis 7 verschiedene nebeneinander befindliche Pflanzen unter einen gemeinsamen Isolator ein. […] Der Sterilitätsprozentsatz (X) für Weizen, Roggen, Tritikale und Hirse wird nach folgender Formel [formula] ermittelt.
Pflanzen von diploidem Roggen Sorte Talovskaya 12 werden in der V. Periode der Organogenese (nach Kupermann) mit einer 1%igen wässrigen Emulsion von N-(2-Di- methylaminoäthyl)-maleaminsäure, N-(3-Dimethylaminopropyl)-maleaminsäure, N-Äthylmaleaminsäure, N-(2-Hydroxyäthyl)maleaminsäure, N-Karbamoylmaleaminsäure behandelt. Die Emulsion enthält 0,01 Masse% Dodezylsulfat und 0,1 Masse% Kalziumalkylbenzolsulfonat mit 12 bis _14 Kohlenstoffatomen. Der Verbrauch an Präparat beträgt 6 kg/ha. Als Kontrolle dienen Pflanzen, behandelt mit einem Verdünner ohne Sterilisationsmittel.

[10] = system: diploidem Roggen Sorte Voskhod 2; assay: Field test of pollen sterilisation, diploid rye Voskhod 2; assay type: in vivo; details: 1% aqueous emulsion, 10 kg/ha
Excerpt: Die Emulsion enthält 0,1 Masse% Kalziumalkylbenzolsulfonat und 0,01 Masse% Dimethylformamid. Der Verbrauch an Präparat beträgt 10 kg/ha. Als Kontrolle dienen Pflanzen, behandelt mit einem Lösungsmittel ohne Sterilisationsmittel.

[11] = system: tetraploidem Roggen Sorte Belta; assay: Field test of pollen sterilisation, tetraploid rye Belta; assay type: in vivo; details: 1% aqueous emulsion, 10 kg/ha
Excerpt: as §1, §2, §7, §8, §9
Pflanzen von tetraploidem Roggen Sorte Belta werden in der V. Periode der Organogenese (nach Kupermann) mit einer 1%igen wässrigen Emulsion von N-(2-Dimethylamino- .äthyl)maleaminsäure, N-(3-Dimethylaminopropyl)maleaminsäure, N-Äthylmaleaminsäure, N-(2-Hydroxyäthyl)maleaminsäure bzw. Karbamoylmaleaminsäure behandelt. Die Emulsion enthält 0,5 Masse% Kalziumalkylbenzolsulfonat mit 12 bis 14 Kohlenstoffatomen und 0,01 Masso% Tetrahydrofuran. Der Verbrauch an Präparat beträgt 10 kg/ha. Die Prüfergebnisse sind in der Tabelle 5 dargestellt. […] Periode der Organogenese erhalten.

[12] = system: diploidem Roggen Sorte Chulpan; assay: Field test of pollen sterilisation, diploid rye Chulpan; assay type: in vivo; details: 1% aqueous emulsion, 8 kg/ha
Excerpt: as §10
Die Emulsion enthält 0,01 Masse% Tetranydrofuran und 0,1 Masse% Kalziumalkylbenzolsulfonat mit 12 bis 14 Kohlenstoffatomen. Der Verbrauch an Präparat beträgt 8 kg/ha. Als Kontrolle dienen Pflanzen, behandelt mit einem Verdünner ohne Sterilisationsmittel.

[13] = period V of organogenesis, free pollination
[14] = period V of organogenesis, isolated ears
[15] = period V, non-isolated control ears = 100%

SMILES: NC(=O)NC(=O)/C=C\C(=O)O [Beispiel 61, N-Karbamoylmaleaminsäure]
- Prozentsatz der Sterilität (Linie BK-119): 100,0%
- Ansetzen von Ächänen bei freier Bestäubung in % (Linie BK-119): 82,5%

SMILES: CN(C)CCCNC(=O)/C=C\C(=O)O [Beispiel 60, N-(3-Dimethylaminopropyl)-maleaminsäure]
- Prozentsatz der Sterilität [1]: 100,0%
- Ansetzen von Ächänen bei freier Bestäubung in % [1]: 84,9%

SMILES: CN(C)CCCNC(=O)/C=C\C(=O)O [Beispiel 64, N-(3-Dimethylaminopropyl)-maleaminsäure]
- Prozentsatz der Sterilität (Linie BK-119): 100,0%
- Ansetzen von Ächänen bei freier Bestäubung in % (Linie BK-119): 80,4%

SMILES: NC(=O)NC(=O)/C=C\C(=O)O [Beispiel 59, N-Karbamoylmaleaminsäure]
- Prozentsatz der Sterilität [1]: 100,0%
- Ansetzen von Ächänen bei freier Bestäubung in % [1]: 81,7%

SMILES: NC(=O)NC(=O)/C=C\C(=O)O [Beispiel 5, N-Karbamoylmaleaminsäure]
- LD50 [2]: 2000 mg/kg
- Prozentsatz der Sterilität ([3]; period V of organogenesis): 97,8%
- Anzahl von Körnern der Ähre bei freier Bestäubung [3, 13]: 41,8
- Anzahl von Körnern der Ähre im Isolator [3, 14]: 0,7
- Prozentsatz des Ansetzens von Körnern bei breier Bestäubung [3, 15]: 97,4%
- Prozentsatz der Sterilität ([4]; period V of organogenesis): 99,4%
- Anzahl von Körnern der Ähre bei freier Bestäubung [4, 13]: 44,0
- Anzahl von Körnern der Ähre im Isolator [4, 14]: 0,2
- Prozentsatz des Ansetzens von Körnern bei freier Bestäubung [4, 15]: 98,2%
- Prozentsatz der Sterilität ([5]; period V of organogenesis): 100,0%
- Anzahl von Körnern der Ähre bei freier Bestäubung [5, 13]: 40,0
- Anzahl von Körnern der Ähre im Isolator [5, 14]: 0,0
- Prozentsatz des Ansetzens von Körnern bei freier Bestäubung [5, 15]: 93,9%
- Prozentsatz der Sterilität ([6]; period V of organogenesis): 100,0%
- Anzahl von Körnern der Ähre bei freier Bestäubung [6, 13]: 27,1
- Anzahl von Körnern der Ähre im Isolator [6, 14]: 0,0
- Prozentsatz des Ansetzens von Körnern bei freier Bestäubung [6, 15]: 90,0%
- Prozentsatz der Sterilität (Tritikale Sorte Prag 109; period V of organogenesis): 100,0%
- Anzahl von Körnern der Ähre bei freier Bestäubung (Tritikale Sorte Prag 109; [13]): 39,6
- Anzahl von Körnern der Ähre im Isolator (Tritikale Sorte Prag 109; [14]): 0,0
- Prozentsatz des Ansetzens von Körnern bei freier Bestäubung (Tritikale Sorte Prag 109; [15]): 86,5%
- Prozentsatz der Sterilität ([7]; period V of organogenesis): 100,0%
- Anzahl von Körnern der Rispe bei freier Bestäubung [7, 13]: 198,2
- Anzahl von Körnern der Rispe im Isolator ([7]; period V of organogenesis, isolated panicles): 0,0
- Prozentsatz des Ansetzens von Körnern bei freier Bestäubung ([7]; period V, non-isolated control = 100%): 87,2%
- Prozentsatz der Sterilität ([8]; period V of organogenesis): 100,0%
- Anzahl von Körnern der Ähre bei freier Bestäubung [8, 13]: 27,2
- Anzahl von Körnern der Ähre im Isolator [8, 14]: 0,0
- Prozentsatz des Ansetzens von Körnern bei freier Bestäubung [8, 15]: 98,9%
- Prozentsatz der Sterilität ([9]; period V of organogenesis): 100,0%
- Anzahl von Körnern der Ähre bei freier Bestäubung [9, 13]: 48,9
- Anzahl von Körnern der Ähre im Isolator [9, 14]: 0,0
- Prozentsatz des Ansetzens von Körnern bei freier Bestäubung [9, 15]: 87,0%
- Prozentsatz der Sterilität ([10]; period V of organogenesis): 98,2%
- Anzahl von Körnern der Ähre bei freier Bestäubung [10, 13]: 51,7
- Anzahl von Körnern der Ähre im Isolator [10, 14]: 0,9
- Prozentsatz des Ansetzens von Körnern bei freier Bestäubung [10, 15]: 93,7%
- Prozentsatz der Sterilität ([11]; period V of organogenesis): 100,0%
- Anzahl von Körnern der Ähre bei freier Bestäubung [11, 13]: 47,8
- Anzahl von Körnern der Ähre im Isolator [11, 14]: 0,0
- Prozentsatz des Ansetzens von Körnern bei freier Bestäubung [11, 15]: 87,2%
- Prozentsatz der Sterilität ([12]; period V of organogenesis): 100,0%
- Anzahl von Körnern der Ähre bei freier Bestäubung [12, 13]: 48,7
- Anzahl von Körnern der Ähre im Isolator [12, 14]: 0,0
- Prozentsatz des Ansetzens von Körnern bei freier Bestäubung [12, 15]: 85,7%
